22 molecules from patent US8071587B2, “(Dihydro)imidazoiso[5,1-A]quinolines” (N. V. Organon, priority 2009, dated 2011) can be followed below.

Each structure is given as a SMILES string. pEC50: −log10 of the molar value.

The target of one series is T1, human FSH receptor (Homo sapiens, UniProt P23945).
T1 construct: expressed in transfected cells; host or cells: Chinese Hamster Ovary (CHO) cells, stably transfected, cotransfected with a CRE/promoter-firefly luciferase reporter
T1 sequence (P23945 18-695): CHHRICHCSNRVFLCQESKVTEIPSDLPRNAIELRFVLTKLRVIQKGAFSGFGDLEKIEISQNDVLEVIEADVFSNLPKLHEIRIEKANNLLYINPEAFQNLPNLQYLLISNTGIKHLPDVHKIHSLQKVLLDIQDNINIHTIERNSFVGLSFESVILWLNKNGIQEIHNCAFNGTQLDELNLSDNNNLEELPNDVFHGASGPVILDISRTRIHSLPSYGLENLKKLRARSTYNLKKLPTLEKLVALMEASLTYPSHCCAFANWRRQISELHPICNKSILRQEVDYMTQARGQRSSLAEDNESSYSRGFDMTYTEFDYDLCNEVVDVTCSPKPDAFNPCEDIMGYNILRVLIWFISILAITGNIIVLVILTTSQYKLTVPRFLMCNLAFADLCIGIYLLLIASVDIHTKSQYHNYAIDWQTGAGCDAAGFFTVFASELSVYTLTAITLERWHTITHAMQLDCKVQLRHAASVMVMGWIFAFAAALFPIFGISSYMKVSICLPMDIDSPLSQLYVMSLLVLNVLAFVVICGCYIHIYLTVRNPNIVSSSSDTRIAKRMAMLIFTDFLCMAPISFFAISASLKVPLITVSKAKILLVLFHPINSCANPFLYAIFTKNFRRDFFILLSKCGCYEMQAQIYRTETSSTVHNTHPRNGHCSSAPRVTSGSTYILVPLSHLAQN
As to the kind of experiment: Agonistic activity at the human FSH receptor expressed in CHO cells, CRE-luciferase reporter (hFSHRago CHO luc). Format: cell-based. Conditions: CHO cells stably transfected with human FSH receptor and CRE/luciferase reporter; 4 hours of incubation. An excerpt:
The term EC50 means the concentration of the test compound that elicits half-maximal (50%) stimulation compared to the compound's maximally attainable effect. The values can be determined e.g. in a cell line transfected with a FSH receptor gene and cotransfected with a cAMP responsive element/promoter directing the expression of a reporter gene. Values can be determined using a software program such as MathIQ (version 2.0, ID Business Solutions Limited). Agonistic Activity of Compounds at the Human FSH Receptor Expressed in CHO Cells Agonistic activity of the compounds at the human FSH receptor was determined in Chinese Hamster Ovary (CHO) cells stably transfected with the human FSH receptor and cotransfected with a cAMP responsive element (CRE)/promotor directing the expression of a firefly luciferase reporter gene. Binding of the compounds to the Gs protein-coupled FSH receptor will result in an increase of cAMP, which in turn will induce an increased transactivation of the luciferase reporter. Cells (7,500 cells/well of a 384 well plate) were incubated in Dulbecco' minimal essential F12 modified medium (Invitrogen), supplemented with 1 μg/ml bovine insulin, 5 μg/ml human apo-transferrin, 80 U/ml penicillin G and 80 μg/ml streptomycin with the test compounds (concentration between 0.0316 nM and 10.0 μM) in duplicate in a humidified atmosphere (95%) at 5-7% CO2 and 37° C. The final concentration of DMSO was 1%. After 4 hours of incubation, plates were allowed to adjust to room temperature for 1 hour. Then, Luclite (PerkinElmer) solution was added to the wells and cells were allowed to lyse for at least 1 hour at room temperature. Subsequently, luciferase activity was measured in a luminescence counter. The signal is expressed as counts per second (cps). The EC50 (concentration of the test compound that elicits half-maximal (50%) luciferase stimulation compared to the compound's maximally attainable effect) and efficacy values (maximal effect of the test compound as percentage of the maximal effect of recombinant human FSH) of the compounds were determined using the software program MathIQ (version 2.0, ID Business Solutions Limited). EC50 data are indicated at the synthesis examples.
(In general: Reporter assays use an easily measured gene product as a stand-in for the process of interest.)

As to `COC1=CC2CCn3c(C(=O)N(C)C(C)(C)C)nc(-c4cccs4)c3C2C=C1c1cccnc1` (centres unmarked) [Example 2a, 8-Methoxy-9-pyridin-3-yl-1-thiophen-2-yl-5,6,6a,10a-tetrahydro-imidazo[5,1-a]isoquinoline-3-carboxylic acid tert-butyl-methyl-amide], the pEC50 (as a rule, −log10 of the EC50, conventionally taken in molar units) at human FSH receptor was 9.00.

Take `COc1cc2c(cc1NC(=O)c1nccs1)-c1c(-c3cccs3)nc(C(=O)N(C)C(C)(C)C)n1CC2` [Example 10, 8-Methoxy-9-[(thiazole-2-carbonyl)-amino]-1-thiophen-2-yl-5,6-dihydro-imidazo[5,1-a]isoquinoline-3-carboxylic acid tert-butyl-methyl-amide]: the melting point (usually the temperature, or range, at which the solid turns liquid) fell in the range of 185 to 186 °C.

Turning to `COc1cc2c(cc1NC(=O)c1cscn1)-c1c(-c3cccs3)nc(C(=O)N(C)C(C)(C)C)n1CC2` [Example 11, 8-Methoxy-9-[(thiazole-4-carbonyl)-amino]-1-thiophen-2-yl-5,6-dihydro-imidazo[5,1-a]isoquinoline-3-carboxylic acid tert-butyl-methyl-amide], the melting point fell in the range of 240 to 242 °C.

For `COc1cc2c(cc1NC(=O)c1csnn1)-c1c(-c3cccs3)nc(C(=O)N(C)C(C)(C)C)n1CC2` [Example 12, 8-Methoxy-9[([1,2,3]thiadiazole-4-carbonyl)-amino]-1-thiophen-2-yl-5,6-dihydro-imidazo[5,1-a]isoquinoline-3-carboxylic acid tert-butyl-methyl-amide], the melting point lay within 210 to 212 °C.

The molecule `COc1cc2ccn3c(C(=O)N(C)C(C)(C)C)nc(-c4cccs4)c3c2cc1OC(C)C` [Example 15j, 9-Isopropoxy-8-methoxy-1-thiophen-2-yl-imidazo[5,1-a]isoquinoline-3-carboxylic acid tert-butyl-methyl-amide] gave a melting point of 163 to 164 °C. For the same molecule, the pEC50 at human FSH receptor was 8.19.

In turn, `COc1cc2ccn3c(C(=O)N(C)C(C)(C)C)nc(-c4cccs4)c3c2cc1C=C(C)C` [Example 16e, 8-Methoxy-9-(2-methyl-propenyl)-1-thiophen-2-yl-imidazo[5,1-a]isoquinoline-3-carboxylic acid tert-butyl-methyl-amide] showed a melting point of 121 to 123 °C.

With `COc1cc2ccn3c(C(=O)N(C)C(C)(C)C)nc(-c4cccs4)c3c2cc1-c1cnn(C)c1` [Example 17b, 8-Methoxy-9-(1-methyl-1H-pyrazol-4-yl)-1-thiophen-2-yl-imidazo[5,1-a]isoquinoline-3-carboxylic acid tert-butyl-methyl-amide], the melting point lay within 239 to 241 °C.

For `COc1cc2c(cc1CC(C)C)-c1c(-c3cccs3)nc(C(=O)N(C)C(C)(C)C)n1CC2` [Example 18k, 9-Isobutyl-8-methoxy-1-thiophen-2-yl-5,6-dihydro-imidazo[5,1-a]isoquinoline-3-carboxylic acid tert-butyl-methyl-amide], the melting point was found to be 124 °C.

On to `CC(C)Cc1ccc2c(c1)-c1c(-c3cccs3)nc(C(=O)N(C)C(C)(C)C)n1CC2` [Example 20b, 9-Isobutyl-1-thiophen-2-yl-5,6-dihydro-imidazo[5,1-a]isoquinoline-3-carboxylic acid tert-butyl-methyl-amide], for which the melting point is 126 °C.

At human FSH receptor, `CCCCN1CCN(C(=O)c2nc(-c3cccs3)c3n2CCc2cc(OC)c(OC(C)C)cc2-3)CCC1=O` [Example 27b, 4-Butyl-1-(9-isopropoxy-8-methoxy-1-thiophen-2-yl-5,6-dihydro-imidazo[5,1-a]isoquinoline-3-carbonyl)-[1,4]diazepan-5-one] gave a pEC50 of 9.22.

On to `C=CCN1CCN(C(=O)c2nc(-c3cccs3)c3n2CCc2cc(OC)c(OC(C)C)cc2-3)CCC1=O` [Example 28, 4-Allyl-1-(9-isopropoxy-8-methoxy-1-thiophen-2-yl-5,6-dihydro-imidazo[5,1-a]isoquinoline-3-carbonyl)-[1,4]diazepan-5-one], for which, on human FSH receptor, the pEC50 was 8.52. Against the preceding molecule, the pEC50 is 0.70 log units lower.

In turn, `CCN(C(=O)c1nc(-c2cccs2)c2n1CCc1cc(OC)c(OCCO)cc1-2)C(C)(C)C` [Example 34b, 9-(2-Hydroxy-ethoxy)-8-methoxy-1-thiophen-2-yl-5,6-dihydro-imidazo[5,1-a]isoquinoline-3-carboxylic acid tert-butyl-ethyl-amide] had a melting point of 178 to 186 °C.

In turn, `COc1cc2c(cc1CC(C)C)-c1c(-c3ncco3)nc(C(=O)N(C)C(C)(C)C)n1CC2` [Example 37f, 9-Isobutyl-8-methoxy-1-oxazol-2-yl-5,6-dihydro-imidazo[5,1-a]isoquinoline-3-carboxylic acid tert-butyl-methyl-amide] yielded a melting point of 147 to 148 °C.

With `COc1cc2c(cc1CC(C)C)-c1c(-c3cncs3)nc(C(=O)N(C)C(C)(C)C)n1CC2` [Example 38, 9-Isobutyl-8-methoxy-1-thiazol-5-yl-5,6-dihydro-imidazo[5,1-a]isoquinoline-3-carboxylic acid tert-butyl-methyl-amide], the melting point was in the range of 144 to 145 °C.

Molecule `COc1cc2c(cc1C=C(F)F)-c1c(-c3cccs3)nc(C(=O)N(C)C(C)(C)C)n1CC2` [Example 39, 9-(2,2-Difluoro-vinyl)-8-methoxy-1-thiophen-2-yl-5,6-dihydro-imidazo[5,1-a]isoquinoline-3-carboxylic acid tert-butyl-methyl-amide] registered a melting point of 154 to 155 °C.

Turning to `CCOc1ccc2c(c1)CCn1c(C(=O)N(C)C(C)(C)C)nc(-c3cccs3)c1-2` [Example 40c, 8-Ethoxy-1-thiophen-2-yl-5,6-dihydro-imidazo[5,1-a]isoquinoline-3-carboxylic acid tert-butyl-methyl-amide], the melting point lay in the range of 111 to 112 °C.

Turning to `COc1cc2c(cc1CCC(C)(C)O)-c1c(-c3cccs3)nc(C(=O)N(C)C(C)(C)C)n1CC2` [Example 41c, 9-(3-Hydroxy-3-methyl-butyl)-8-methoxy-1-thiophen-2-yl-5,6-dihydro-imidazo[5,1-a]isoquinoline-3-carboxylic acid tert-butyl-methyl-amide], the melting point lay in the range of 140 to 143 °C.

Turning to `COc1cc2c(cc1Oc1ccccc1)-c1c(-c3cccs3)nc(C(=O)N(C)C(C)(C)C)n1CC2` [Example 42b, 8-Methoxy-9-phenoxy-1-thiophen-2-yl-5,6-dihydro-imidazo[5,1-a]isoquinoline-3-carboxylic acid tert-butyl-methyl-amide], the melting point lay in the range of 122 to 126 °C.

`COc1cccc(Oc2cc3c(cc2OC)CCn2c(C(=O)N(C)C(C)(C)C)nc(-c4cccs4)c2-3)c1` [Example 43b, 8-Methoxy-9-(3-methoxy-phenoxy)-1-thiophen-2-yl-5,6-dihydro-imidazo[5,1-a]isoquinoline-3-carboxylic acid tert-butyl-methyl-amide]: the melting point was in the range of 123 to 124 °C.

`COc1cc2c(cc1OC(C)C)-c1c(-c3cncs3)nc(C(=O)N(C)C(C)(C)C)n1CC2` [Example 47e, 9-Isopropoxy-8-methoxy-1-thiazol-5-yl-5,6-dihydro-imidazo[5,1-a]isoquinoline-3-carboxylic acid tert-butyl-methyl-amide] displayed a melting point of 112 to 114 °C.

The molecule `COc1cc2c(c(F)c1CC(C)C)-c1c(-c3cccs3)nc(C(=O)N(C)C(C)(C)C)n1CC2` [Example 48j, 10-Fluoro-9-isobutyl-8-methoxy-1-thiophen-2-yl-5,6-dihydro-imidazo[5,1-a]isoquinoline-3-carboxylic acid tert-butyl-methyl-amide] registered a melting point of 141 to 142 °C.

`CCn1nnc(-c2cc3c(cc2OC)CCn2c(C(=O)N(C)C(C)(C)C)nc(-c4cccs4)c2-3)n1` [Example 51c, 9-(2-Ethyltetrazol-5-yl-)-8-methoxy-1-thiophen-2-yl-5,6-dihydro-imidazo[5,1-a]isoquinoline-3-carboxylic acid tert-butyl-methyl-amide]: the pEC50 at human FSH receptor was 8.30.
